Reference: ChEMBL document CHEMBL1649425, “A-CD estrogens. I. Substituent effects, hormone potency, and receptor subtype selectivity in a new family of flexible estrogenic compounds” (J Med Chem, 2011)

Assays:
Homo sapiens [1] = species: Homo sapiens; assay: Selectivity ratio of relative binding affinity for human ERbeta to relative binding affinity for human ERalpha
[2] = biological target: T1, Estrogen receptor (Homo sapiens) (UniProt P03372); assay: Activity at human ERalpha expressed in HEK293 cells assessed as relative transcription activation by estrogen response element-lucifease assay relative to estradiol; type: cell-based; design: concentration or dose not given beside the values
T1 sequence (whole entry): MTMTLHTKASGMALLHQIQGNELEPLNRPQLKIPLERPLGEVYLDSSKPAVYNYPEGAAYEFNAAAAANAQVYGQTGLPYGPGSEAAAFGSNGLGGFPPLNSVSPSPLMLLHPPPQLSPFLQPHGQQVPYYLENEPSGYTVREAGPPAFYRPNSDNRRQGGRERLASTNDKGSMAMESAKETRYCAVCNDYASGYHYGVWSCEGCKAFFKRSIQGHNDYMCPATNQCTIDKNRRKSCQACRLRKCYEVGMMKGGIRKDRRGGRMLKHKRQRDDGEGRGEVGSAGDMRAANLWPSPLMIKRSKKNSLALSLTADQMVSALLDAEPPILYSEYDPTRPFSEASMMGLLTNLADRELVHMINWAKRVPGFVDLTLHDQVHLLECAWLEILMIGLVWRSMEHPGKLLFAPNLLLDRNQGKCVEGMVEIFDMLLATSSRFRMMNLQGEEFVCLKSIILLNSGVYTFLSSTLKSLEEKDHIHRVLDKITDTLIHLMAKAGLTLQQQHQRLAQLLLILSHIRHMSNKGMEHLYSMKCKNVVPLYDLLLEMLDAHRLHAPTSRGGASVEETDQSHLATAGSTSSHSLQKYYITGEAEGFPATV

[3] = biological target: Estrogen receptor beta (Homo sapiens) (UniProt Q92731); assay: Activity at human ERbeta expressed in HEK293 cells assessed as relative transcription activation by estrogen response element-lucifease assay relative to estradiol; type: cell-based; design: concentration or dose not given beside the values
[4] = Hepatotoxicity in Sprague-Dawley rat hepatocyte after 2 hrs; type: toxicity, cell-based; details: hepatocytes, read-out: LC50
Homo sapiens [5] = species: Homo sapiens; assay: Selectivity ratio of relative transcription activation for human ERbeta to relative transcription activation for human ERalpha

Sequence of Estrogen receptor beta (Homo sapiens) (Q92731 whole entry): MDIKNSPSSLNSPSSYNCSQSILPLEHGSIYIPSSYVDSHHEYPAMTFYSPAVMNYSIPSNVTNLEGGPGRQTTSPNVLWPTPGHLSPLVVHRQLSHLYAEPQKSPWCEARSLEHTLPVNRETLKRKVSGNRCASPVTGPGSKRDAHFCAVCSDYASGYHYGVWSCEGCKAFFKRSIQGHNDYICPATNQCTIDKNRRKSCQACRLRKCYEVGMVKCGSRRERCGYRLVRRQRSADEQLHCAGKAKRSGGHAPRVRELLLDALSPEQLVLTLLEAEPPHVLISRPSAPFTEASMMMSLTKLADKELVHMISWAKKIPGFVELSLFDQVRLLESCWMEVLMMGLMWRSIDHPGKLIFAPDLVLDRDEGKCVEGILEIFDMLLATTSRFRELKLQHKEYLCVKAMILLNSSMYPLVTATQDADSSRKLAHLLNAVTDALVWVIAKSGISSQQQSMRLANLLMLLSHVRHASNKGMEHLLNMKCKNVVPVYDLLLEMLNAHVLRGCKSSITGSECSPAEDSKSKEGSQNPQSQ

| SMILES | Ratio (Homo sapiens [1]) | Activity [2] | Activity [3] | CC50 at 2 h [4] | Ratio (Homo sapiens [5]) |
| --- | --- | --- | --- | --- | --- |
| C#C[C@]1(O)CC[C@@H]2C[C@@H](c3ccc(O)cc3)CC[C@@]21C | 1.3 | -16.9% | 35.9% | – | – |
| C[C@]12CC[C@H](c3ccc(O)cc3Cl)C[C@H]1CC[C@@H]2O | – | 90% | 189% | – | – |
| C[C@]12CC[C@@H](c3ccc(O)cc3)C[C@H]1CC[C@@H]2O | – | – | – | 300 µM | – |
| C[C@]12CC[C@H](c3ccc(O)cc3F)C[C@H]1CC[C@@H]2O | 5 | 44.3% | 158% | 250 µM | 3.6 |
| C[C@]12CC[C@H](c3ccc(O)cc3)C[C@H]1CC[C@@H]2O | 14.6 | 4.2% | 164% | 320 µM | 39 |
| C[C@]12CC[C@H](c3ccc(O)c(F)c3F)C[C@H]1CC[C@@H]2O | 9.3 | 18.3% | 151% | 155 µM | 8.3 |
| Cc1cc(O)ccc1[C@H]1CC[C@@]2(C)[C@H](CC[C@@H]2O)C1 | 11.9 | -9.7% | 49.2% | – | – |
| Cc1c(O)ccc([C@H]2CC[C@@]3(C)[C@H](CC[C@@H]3O)C2)c1C | 2.8 | – | – | – | – |
| C[C@]12CC[C@H](c3ccc(O)cc3)C[C@H]1CCC2=O | 14 | – | – | – | – |
| C[C@]12CC[C@H](c3cc(F)c(O)c(F)c3)C[C@H]1CC[C@@H]2O | 6.9 | – | – | – | – |
| C[C@]12CC[C@H](c3ccc(O)c(F)c3)C[C@H]1CC[C@@H]2O | 8.3 | -9% | 196% | – | – |
| C[C@]12CC=C(c3ccc(O)cc3Cl)C[C@H]1CC[C@@H]2O | 2.3 | 115% | 117% | – | 1 |
| C[C@]12CC[C@H](c3cc(F)c(O)cc3F)C[C@H]1CC[C@@H]2O | 8.7 | – | – | – | – |
| Cc1c(O)ccc([C@H]2CC[C@@]3(C)[C@H](CC[C@@H]3O)C2)c1F | 1 | – | – | – | – |
| C[C@]12CC[C@H](c3cc(F)c(O)c(F)c3F)C[C@H]1CC[C@@H]2O | 9.3 | 12.8% | 95.4% | > 600 µM | 7.9 |
| C[C@]12CCC(c3ccc(O)cc3Cl)=C[C@H]1CC[C@@H]2O | 1.7 | 98.6% | 127% | – | 1.3 |
| C[C@]12CC[C@H](c3cc(Cl)c(O)c(Cl)c3)C[C@H]1CC[C@@H]2O | 0.5 | 0% | 0% | – | – |
| C[C@]12CC[C@@H]3c4ccc(O)cc4CC[C@H]3[C@@H]1CC[C@@H]2O [ESTRADIOL] | – | – | – | 400 µM | – |
